Experiments:
Assay in all cases: relative viability (nuclei count vs DMSO), 5 days (fraction); higher = more cells survive
Ruxolitinib + AZD7762 = compound: N#CC[C@H](C1CCCC1)n1cc(-c2ncnc3[nH]ccc23)cn1 [Ruxolitinib] + NC(=O)Nc1cc(-c2cccc(F)c2)sc1C(=O)N[C@H]1CCCNC1 [AZD7762] (partner 0.2 µM)
Procedure, shortened: (§1)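 Relative viability is defined as nuclei in treated wells over nuclei in vehicle wells. Duplicate plates were run and medians reported. Lung cancer cell lines in 1536-well plates were dosed by pin tool one day after seeding, with one drug or with a fixed anchor-drug dose plus five library-drug doses (not always all listed) in √10 steps, and nuclei were counted after 5 days.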

Vismodegib + Navitoclax = compound: CS(=O)(=O)c1ccc(C(=O)Nc2ccc(Cl)c(-c3ccccn3)c2)c(Cl)c1 [Vismodegib] + CC1(C)CCC(c2ccc(Cl)cc2)=C(CN2CCN(c3ccc(C(=O)NS(=O)(=O)c4ccc(N[C@H](CCN5CCOCC5)CSc5ccccc5)c(S(=O)(=O)C(F)(F)F)c4)cc3)CC2)C1 [Navitoclax] (partner 0.5 µM)
Procedure, shortened: as §1

Ruxolitinib + Vorinostat = compound: N#CC[C@H](C1CCCC1)n1cc(-c2ncnc3[nH]ccc23)cn1 [Ruxolitinib] + O=C(CCCCCCC(=O)Nc1ccccc1)NO [Vorinostat] (partner 1 µM)
Procedure, shortened: as §1

Ruxolitinib + Decitabine = compound: N#CC[C@H](C1CCCC1)n1cc(-c2ncnc3[nH]ccc23)cn1 [Ruxolitinib] + Nc1ncn([C@H]2C[C@H](O)[C@@H](CO)O2)c(=O)n1 [Decitabine] (partner 2 µM)
Procedure, shortened: as §1

Row | Cell Line | relative viability (Ruxolitinib + AZD7762; first compound 0.08 µM) | relative viability (Ruxolitinib + AZD7762; first compound 0.253 µM) | relative viability (Ruxolitinib + AZD7762; first compound 0.8 µM) | relative viability (Ruxolitinib + AZD7762; first compound 2.53 µM) | relative viability (Ruxolitinib + AZD7762; first compound 8 µM) | relative viability (Vismodegib + Navitoclax; first compound 0.08 µM) | relative viability (Vismodegib + Navitoclax; first compound 0.253 µM) | relative viability (Vismodegib + Navitoclax; first compound 0.8 µM) | relative viability (Vismodegib + Navitoclax; first compound 2.53 µM) | relative viability (Vismodegib + Navitoclax; first compound 8 µM) | relative viability (Ruxolitinib + Vorinostat; first compound 0.08 µM) | relative viability (Ruxolitinib + Vorinostat; first compound 0.253 µM) | relative viability (Ruxolitinib + Vorinostat; first compound 0.8 µM) | relative viability (Ruxolitinib + Vorinostat; first compound 2.53 µM) | relative viability (Ruxolitinib + Vorinostat; first compound 8 µM) | relative viability (Ruxolitinib + Decitabine; first compound 0.08 µM) | relative viability (Ruxolitinib + Decitabine; first compound 0.253 µM) | relative viability (Ruxolitinib + Decitabine; first compound 0.8 µM) | relative viability (Ruxolitinib + Decitabine; first compound 2.53 µM) | relative viability (Ruxolitinib + Decitabine; first compound 8 µM)
1 | A-427 | 0.821 | 0.763 | 0.729 | 0.453 | 0.508 | 0.988 | 0.897 | 0.889 | 1 | 0.976 | 0.906 | 0.879 | 0.9 | 0.974 | 0.841 | 0.566 | 0.558 | 0.579 | 0.605 | 0.58
2 | HCC-44 | 0.947 | 1.05 | 1 | 0.994 | 1.05 | 1.05 | 0.893 | 1.05 | 0.989 | 0.87 | 1.11 | 1.06 | 1.03 | 1.04 | 1.05 | 0.931 | 0.971 | 0.895 | 0.877 | 0.83
3 | NCI-H2170 | 0.908 | 0.834 | 0.959 | 0.76 | 0.706 | 0.683 | 0.602 | 0.755 | 0.473 | 0.617 | 0.804 | 0.796 | 0.889 | 0.794 | 0.65 | 0.499 | 0.436 | 0.496 | 0.425 | 0.427
4 | LOU-NH91 | 0.757 | 0.664 | 0.797 | 0.74 | 0.73 | 0.618 | 0.686 | 0.687 | 0.672 | 0.747 | 0.864 | 0.886 | 0.952 | 0.897 | 0.917 | 0.684 | 0.813 | 0.829 | 0.782 | 0.798
5 | NCI-H727 | 0.701 | 0.461 | 0.587 | 0.8 | 0.979 | 0.496 | 0.428 | 0.453 | 0.36 | 0.386 | 1.2 | 1.19 | 1.4 | 1.12 | 1.49 | 0.578 | 0.901 | 0.936 | 0.841 | 0.842
6 | HARA | 0.344 | 0.365 | 0.377 | 0.0804 | 0.304 | 1.13 | 1.15 | 1.16 | 1.11 | 1.14 | 0.594 | 0.576 | 0.566 | 0.488 | 0.512 | 0.63 | 0.472 | 0.631 | 0.565 | 0.489

— the supplement of paper PMC10307832
